Measured values taken from patent publication US12692221B2 (priority 2024, dated 2026).

What was measured:
[1] = target: T1, 5-HT2A (h) (Homo sapiens, UniProt P28223); experiment: Radioligand binding 5-HT2A (h) (agonist radioligand), [^125I](±)DOI, HEK-293 cells
T1 construct: host or cells: HEK-293 cells

[2] = target: T2, 5-HT transporter (h) (Homo sapiens, UniProt P31645); experiment: Radioligand binding 5-HT transporter (h) (antagonist radioligand), [^3H]imipramine, CHO cells
T2 construct: expressed in transfected cells; host or cells: CHO cells
T2 sequence (P31645 whole entry): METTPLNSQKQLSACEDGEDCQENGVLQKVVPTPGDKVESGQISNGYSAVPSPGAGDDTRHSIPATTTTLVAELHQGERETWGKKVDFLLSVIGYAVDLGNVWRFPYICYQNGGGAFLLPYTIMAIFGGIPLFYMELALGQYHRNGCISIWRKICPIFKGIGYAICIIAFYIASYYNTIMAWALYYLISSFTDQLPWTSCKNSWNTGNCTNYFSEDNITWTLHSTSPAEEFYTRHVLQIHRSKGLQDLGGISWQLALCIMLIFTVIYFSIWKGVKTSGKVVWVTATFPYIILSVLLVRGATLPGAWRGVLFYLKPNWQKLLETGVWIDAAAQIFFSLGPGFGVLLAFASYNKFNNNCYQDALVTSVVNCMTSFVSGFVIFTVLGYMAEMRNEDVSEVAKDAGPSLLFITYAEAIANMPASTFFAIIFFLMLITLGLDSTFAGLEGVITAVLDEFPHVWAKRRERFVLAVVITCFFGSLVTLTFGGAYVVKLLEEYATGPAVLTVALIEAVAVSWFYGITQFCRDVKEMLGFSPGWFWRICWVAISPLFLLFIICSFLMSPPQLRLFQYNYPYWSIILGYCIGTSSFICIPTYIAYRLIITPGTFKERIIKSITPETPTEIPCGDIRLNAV
Protocol: (§1) Methods—Binding Assays: In vitro binding assays were performed using human recombinant receptors expressed in mammalian cell lines. Receptors were expressed in either HEK-293 or CHO cells depending on the target, and assay conditions (radioligand, concentration, nonspecific competitor, temperature, and incubation time) were optimized for each receptor. All assays were conducted in triplicate, and specific binding was quantified by scintillation counting as the detection method for each listed assay.
(§2) Specific binding was expressed as a percentage of control-specific binding, and percent inhibition was calculated using the formula in Ex. 8 above. Half-maximal inhibitory concentrations (IC50) were determined by non-linear regression analysis of the inhibition curves using the Hill equation (see Ex. 8). Inhibition constants (Ki) were calculated using the Cheng-Prusoff equation (see Ex. 8). KD values used in these calculations had been previously established for each receptor under the assay conditions (see Table 6). Data analysis was performed using software developed at Cerep and validated against SigmaPlot 4.0 for Windows.

[3] = target: T3, 5-HT2C (h) (Homo sapiens, UniProt P28335); experiment: Radioligand binding 5-HT2C (h) (agonist radioligand), [^125I](±)DOI, HEK-293 cells
T3 construct: host or cells: HEK-293 cells
T3 sequence (P28335 33-458): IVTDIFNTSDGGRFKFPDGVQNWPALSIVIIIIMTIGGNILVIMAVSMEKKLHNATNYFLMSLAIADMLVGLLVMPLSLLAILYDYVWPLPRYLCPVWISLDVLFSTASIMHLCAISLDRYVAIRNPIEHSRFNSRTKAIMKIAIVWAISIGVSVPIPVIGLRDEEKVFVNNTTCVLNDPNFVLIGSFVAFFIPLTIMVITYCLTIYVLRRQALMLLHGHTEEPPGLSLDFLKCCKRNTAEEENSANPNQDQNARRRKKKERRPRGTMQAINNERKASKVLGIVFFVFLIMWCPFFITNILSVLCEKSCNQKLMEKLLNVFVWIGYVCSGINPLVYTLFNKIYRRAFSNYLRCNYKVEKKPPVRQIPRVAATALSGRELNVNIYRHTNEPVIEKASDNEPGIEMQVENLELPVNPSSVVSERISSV

[4] = target: T4, CCK1 (CCKA) (h) (Homo sapiens, UniProt P32238); experiment: Radioligand binding CCK1 (CCKA) (h) (agonist radioligand), [^125I]CCK-8s, CHO cells; settings: CCK1 (CCKA) (h) (agonist radiolig.)
T4 construct: expressed in transfected cells; host or cells: CHO cells
T4 sequence (P32238 1-428): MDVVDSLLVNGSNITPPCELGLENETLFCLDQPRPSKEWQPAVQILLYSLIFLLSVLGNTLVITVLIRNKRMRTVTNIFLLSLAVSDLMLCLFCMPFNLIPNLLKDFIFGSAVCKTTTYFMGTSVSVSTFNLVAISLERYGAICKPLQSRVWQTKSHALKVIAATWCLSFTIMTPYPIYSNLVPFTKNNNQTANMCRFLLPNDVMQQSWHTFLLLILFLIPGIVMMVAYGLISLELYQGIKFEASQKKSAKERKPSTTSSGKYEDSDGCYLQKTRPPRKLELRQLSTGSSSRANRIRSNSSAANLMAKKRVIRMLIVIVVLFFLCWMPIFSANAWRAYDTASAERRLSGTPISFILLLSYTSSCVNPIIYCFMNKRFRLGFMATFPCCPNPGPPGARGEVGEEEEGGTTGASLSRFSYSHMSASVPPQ
Protocol: as §1, §2

[5] = test system: MDR1; experiment: MDR1-MDCKII bidirectional permeability assay; assay type: in vitro ADME, Canine; settings: dog; for recovery at 60 min / recovery at 40 min: MDCK-MDR1, pH 7.4; for recovery at 60 min / Papp A→B at 60 min: apical-to-basolateral; for recovery at 60 min: read-out: A-B Percent Recovery; for recovery at 40 min / Papp B→A at 40 min: basolateral-to-apical; for recovery at 40 min: read-out: B-A Percent Recovery; for Papp A→B at 60 min / Papp B→A at 40 min: MDCK-MDR1, HBSS pH 7.4, 37° C.
Protocol: Methods: In vitro permeability studies were performed using confluent monolayers of MDR1-transfected Madin-Darby Canine Kidney (MDR1-MDCKII) cells cultured under standard conditions. Cells were seeded onto permeable supports and maintained until they formed tight monolayers suitable for bidirectional transport studies. The assay was conducted at 37° C. using Hanks' balanced salt solution (HBSS) adjusted to pH 7.4 on both the apical and basolateral sides. For apical-to-basolateral (A-B) permeability, samples were collected at 0 and 60 minutes, whereas for basolateral-to-apical (B-A) permeability, samples were collected at 0 and 40 minutes. The concentration of each compound in the donor and receiver chambers was determined by HPLC-MS/MS, and all results were expressed in terms of peak area.
The apparent permeability coefficient (Papp) for each compound was calculated using the formula:
[formula] where VR was the volume of the receiver chamber, CR,end was the concentration of the compound in the receiver chamber at the final time point, At was the incubation time, and A was the surface area of the cell monolayer. The midpoint donor concentration (CD,mid) was calculated as the average of the donor concentrations at time 0 and the end time point, while CR,mid was calculated as one-half of CaR,end.
Compound recovery was also evaluated using the following formula:
[formula] where VD and VR were the volumes of the donor and receiver chambers, respectively, CD,end and CR,end were the compound concentrations at the final time point in their respective compartments, and CD0 was the initial concentration in the donor chamber. Monolayer integrity was assessed following the permeability assay using fluorescein as a paracellular marker compound. Fluorescein was added to the apical chamber and sampled in the basolateral chamber after incubation. […] Only data from wells that met this integrity threshold were included in the final analysis.

[6] = target: T5, 5-HT2C (Homo sapiens, UniProt P28335); experiment: cell-based; settings: IP-1 accumulation
T5 construct: host or cells: HEK293

[7] = target: T6, 5-HT2B (h) (Homo sapiens, UniProt P41595); experiment: Radioligand binding 5-HT2B (h) (agonist radioligand), [^125I](±)DOI, CHO cells
T6 construct: host or cells: CHO cells
T6 sequence (P41595 whole entry): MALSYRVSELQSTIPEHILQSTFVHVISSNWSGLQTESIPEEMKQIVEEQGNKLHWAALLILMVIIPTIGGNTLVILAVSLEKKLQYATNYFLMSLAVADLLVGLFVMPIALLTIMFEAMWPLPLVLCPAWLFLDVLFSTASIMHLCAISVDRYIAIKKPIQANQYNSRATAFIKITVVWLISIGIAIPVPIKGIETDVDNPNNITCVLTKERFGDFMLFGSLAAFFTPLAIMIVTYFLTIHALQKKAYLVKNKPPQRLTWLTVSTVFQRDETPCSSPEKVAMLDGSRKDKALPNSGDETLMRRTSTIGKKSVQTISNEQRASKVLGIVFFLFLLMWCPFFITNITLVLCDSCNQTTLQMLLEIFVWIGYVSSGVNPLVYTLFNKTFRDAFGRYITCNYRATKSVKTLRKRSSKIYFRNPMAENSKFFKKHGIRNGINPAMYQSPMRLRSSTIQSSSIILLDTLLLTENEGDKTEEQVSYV

[8] = target: T7, N neuronal α4β2 (h) (Homo sapiens, UniProt P17787+P43681); experiment: Radioligand binding N neuronal α4β2 (h) (agonist radioligand), [^3H]cytisine, SH-SY5Y cells; settings: N neuronal alpha4beta2 (h) (agonist radioligand)
T7 construct: expressed in transfected cells; host or cells: SH-SY5Y cells
T7 sequence (P43681 29-627 limits assumed): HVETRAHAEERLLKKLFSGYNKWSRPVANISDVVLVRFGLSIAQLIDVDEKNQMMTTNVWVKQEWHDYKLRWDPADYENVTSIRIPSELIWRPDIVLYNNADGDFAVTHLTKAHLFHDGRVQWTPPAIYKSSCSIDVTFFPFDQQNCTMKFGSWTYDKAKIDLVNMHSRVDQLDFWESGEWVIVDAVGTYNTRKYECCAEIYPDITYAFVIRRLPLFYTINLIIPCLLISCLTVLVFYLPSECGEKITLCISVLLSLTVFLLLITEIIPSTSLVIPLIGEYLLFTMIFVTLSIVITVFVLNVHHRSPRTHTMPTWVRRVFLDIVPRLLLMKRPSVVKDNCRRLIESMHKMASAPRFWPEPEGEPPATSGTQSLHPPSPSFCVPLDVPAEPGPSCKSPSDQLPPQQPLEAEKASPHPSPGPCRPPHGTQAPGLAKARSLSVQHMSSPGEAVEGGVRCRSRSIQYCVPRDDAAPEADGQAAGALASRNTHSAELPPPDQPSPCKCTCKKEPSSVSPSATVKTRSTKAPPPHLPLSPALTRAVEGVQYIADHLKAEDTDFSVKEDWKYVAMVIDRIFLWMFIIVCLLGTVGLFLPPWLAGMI
T7 sequence (P17787 26-502): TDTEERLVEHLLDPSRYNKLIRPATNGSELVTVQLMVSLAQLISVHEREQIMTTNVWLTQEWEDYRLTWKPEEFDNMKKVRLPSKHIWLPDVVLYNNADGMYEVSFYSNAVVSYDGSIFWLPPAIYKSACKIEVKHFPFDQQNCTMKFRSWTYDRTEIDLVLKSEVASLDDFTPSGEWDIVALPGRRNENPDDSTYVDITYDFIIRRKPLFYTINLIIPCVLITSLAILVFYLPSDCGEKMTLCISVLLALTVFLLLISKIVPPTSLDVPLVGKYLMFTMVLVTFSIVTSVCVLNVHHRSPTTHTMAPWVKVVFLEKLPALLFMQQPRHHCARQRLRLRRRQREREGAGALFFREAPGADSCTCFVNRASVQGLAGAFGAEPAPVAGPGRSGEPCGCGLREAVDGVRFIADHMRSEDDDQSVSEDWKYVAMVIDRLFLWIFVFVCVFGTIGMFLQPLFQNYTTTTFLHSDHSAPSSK

[9] = test system: Ca^2+ channel (L, dihydropyridine site); experiment: Radioligand binding Ca^2+ channel (L, dihydropyridine site) (antagonist radioligand), [^3H]nitrendipine, rat cerebral cortex

T1 sequence (P28223 whole entry, looked up): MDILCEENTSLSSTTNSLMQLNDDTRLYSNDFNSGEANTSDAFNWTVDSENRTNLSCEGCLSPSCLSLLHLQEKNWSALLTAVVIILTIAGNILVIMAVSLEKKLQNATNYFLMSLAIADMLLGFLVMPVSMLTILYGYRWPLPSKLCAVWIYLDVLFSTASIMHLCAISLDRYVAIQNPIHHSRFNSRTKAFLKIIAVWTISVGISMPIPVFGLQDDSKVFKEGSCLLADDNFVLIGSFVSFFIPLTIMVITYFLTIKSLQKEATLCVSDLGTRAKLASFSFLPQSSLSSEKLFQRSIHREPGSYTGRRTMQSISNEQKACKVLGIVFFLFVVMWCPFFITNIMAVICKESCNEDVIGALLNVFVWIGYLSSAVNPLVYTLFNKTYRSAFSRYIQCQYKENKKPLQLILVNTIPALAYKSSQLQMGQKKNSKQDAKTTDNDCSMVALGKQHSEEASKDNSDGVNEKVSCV

Row | Structure (SMILES) | Mean Percent Inhibition of Control Specific Binding [2] [%] | Mean Percent Inhibition of Control Specific Binding [4] [%] | recovery at 60 min [5] [%] | recovery at 40 min [5] [%] | Papp A→B at 60 min [5] [×10⁻⁶ cm/s] | Papp B→A at 40 min [5] [×10⁻⁶ cm/s] | EC50 [6] [nM] | Mean Percent Inhibition of Control Specific Binding [8] [%] | Mean Percent Inhibition of Control Specific Binding [9] [%] | other results
1 | COCCc1cc(CCN)c(OC)cc1Br [Compound 2CB-5ME, reference compound] | 8.6 | 3.3 | 75 | 79 | 32.9 | 13.8 | 265 | 7.4 | 0.2 | Mean Percent Inhibition of Control Specific Binding ([1]; 5-HT2A(h) (agonist radioligand)): 98.8%; Mean Percent Inhibition of Control Specific Binding ([3]; 5-HT2C(h) (agonist radioligand)): 99.3%; Mean Percent Inhibition of Control Specific Binding ([7]; 5-HT2B(h) (agonist radioligand)): 104.1%
2 | COCc1cc(CCN)c(OC)cc1CC(C)C [Compound 2CiBu-5MM, 2-[4-isobutyl-2-methoxy-5-(methoxymethyl)phenyl]ethanamine] | 4.9 | 12.2 | 76 | 79 | 24.8 | 13.3 |  | −2.6 | −4.6 | IC50 [1]: 57 nM; Ki [1]: 43 nM; nH ([1]; 5-HT2A, Hill coefficient): 0.6; IC50 [3]: 14 nM; Ki [3]: 12 nM; nH ([3]; 5-HT2C, Hill coefficient): 0.9; IC50 [7]: 270 nM; Ki [7]: 130 nM; nH ([7]; 5-HT2B, Hill coefficient): 0.7
3 | COCc1cc(CCN)c(O)cc1CC(C)C [2CiBu-2OH-5MM, 2-(2-aminoethyl)-5-isobutyl-4-(methoxymethyl)phenol] | 15.0 | −0.1 |  |  |  |  |  | −10.0 | 8.4 | 
4 | COCc1cc(CCN)c(OC)cc1Br [Compound 2CB-5MM, 2-(4-bromo-2-methoxy-5-(methoxymethyl)phenyl)ethan-1-amine] | −1.3 | −11.5 | 78 | 83 | 29.9 | 14.5 | 225 | −0.1 | 2.7 | 
